Experiments:
NK-1 receptor = target: T1, NK-1 receptor (Homo sapiens, UniProt P25103); test: NK-1 Receptor Binding Assay (125I-labeled substance P, IM9 cells); details: for IC50: inhibits fifty percent of binding of 125I-substance P to IM9 cells
T1 construct: endogenous in cells; host or cells: IM9 cells (human cell line), whole cells
Experimental: (§1) The biological activity of the compounds of the present invention was evaluated employing an initial screening assay which rapidly and accurately measured the binding of the tested compound to known NK-1 and NK-2 receptor sites. Assays useful for evaluating tachykinin receptor antagonists are well known in the art.
NK-1 Receptor Binding Assay
Radioreceptor binding assays were performed using a derivative of a previously published protocol.
The IM9 cell line is a well-characterized and readily available human cell line.
The reaction was terminated by filtration through a glass fiber filter harvesting system using filters previously soaked for 20 minutes in 0.1% polyethylenimine. Specific binding of labeled substance P was determined in the presence of 20 nM unlabeled ligand.

human NK-2 receptor = target: T2, human NK-2 receptor (Homo sapiens, UniProt P21452); test: NK-2 Receptor Binding Assay ([125I]iodohistidyl-neurokinin A, CHO-hNK-2R membranes); details: for IC50: inhibits fifty percent of binding of [125I]iodohistidyl-neurokinin A to CHO-hNK-2R membranes
T2 construct: expressed in transfected cells; host or cells: CHO-hNK-2R cells (CHO-derived), membrane preparation
T2 sequence (P21452 1-398): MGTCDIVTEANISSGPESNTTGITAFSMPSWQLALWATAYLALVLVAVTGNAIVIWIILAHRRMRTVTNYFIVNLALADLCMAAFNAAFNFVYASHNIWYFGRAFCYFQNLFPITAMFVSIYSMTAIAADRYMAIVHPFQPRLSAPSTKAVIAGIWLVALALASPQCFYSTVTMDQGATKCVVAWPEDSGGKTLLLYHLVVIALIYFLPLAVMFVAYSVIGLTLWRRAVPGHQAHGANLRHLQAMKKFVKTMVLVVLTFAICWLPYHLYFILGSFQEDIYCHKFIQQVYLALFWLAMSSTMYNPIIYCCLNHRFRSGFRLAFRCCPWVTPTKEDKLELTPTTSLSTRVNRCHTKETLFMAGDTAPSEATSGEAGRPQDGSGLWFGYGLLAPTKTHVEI
Experimental: as §1, with “art. See. e.g., J. Jukic, et al., Life Sciences, 49:1463-1469 (1991); N. Kucharczyk, et al., Journal of Medicinal Chemistry, 36:1654-1661 (1993); N. Rouissi, et al., Biochemical and Biophysical Research Communications, 176:894-901 (1991).” for “art.”
NK-2 Receptor Binding Assay
The CHO-hNK-2R cells, a CHO-derived cell line transformed with the human NK-2 receptor, expressing about 400,000 such receptors per cell, were grown in 75 cm^2 flasks or roller bottles in minimal essential medium (alpha modification) with 10% fetal bovine serum. The gene sequence of the human NK-2 receptor is given in N. P. Gerard, et al., Journal of Biological Chemistry, 265:20455-20462 (1990).
For preparation of membranes, 30 confluent roller bottle cultures were dissociated by washing each roller bottle with 10 ml of Dulbecco's phosphate buffered saline (PBS) without calcium and magnesium, followed by addition of 10 ml of enzyme-free cell dissociation solution (PBS-based, from Specialty Media, Inc.). After an additional 15 minutes, the dissociated cells were pooled and centrifuged at 1,000 RPM for 10 minutes in a clinical centrifuge. Membranes were prepared by homogenization of the cell pellets in 300 ml 50 mM Tris buffer, pH 7.4 with a Tekma® homogenizer for 10-15 seconds, followed by centrifugation at 12,000 RPM (20,000×g) for 30 minutes using a Beckman JA-14® rotor. The pellets were washed once using the above procedure. and the final pellets were resuspended in 100-120 ml 50 mM Tris buffer, pH 7.4, and 4 ml aliquots stored frozen at −70° C. The protein concentration of this preparation was 2 mg/ml.
For the receptor binding assay, one 4-ml aliquot of the CHO-hNK-2R membrane preparation was suspended in 40 ml of assay buffer containing 50 mM Tris, pH 7.4, 3 mM manganese chloride, 0.02% bovine serum albumin (BSA) and 4 μg/ml chymostatin. A 200 μl volume of the homogenate (40 μg protein) was used per sample. The radioactive ligand was [^125I]iodohistidyl-neurokinin A (New England Nuclear, NEX-252), 2200 Ci/mmol. The ligand was prepared in assay buffer at 20 nCi per 100 μl; the final concentration in the assay was 20 pM. Non-specific binding was determined using 1 μM eledoisin. Ten concentrations of eledoisin from 0.1 to 1000 nM were used for a standard concentration-response curve.
All samples and standards were added to the incubation in 10 μl dimethylsulfoxide (DMSO) for screening (single dose) or in 5 μl DMSO for IC50 determinations. The order of additions for incubation was 190 or 195 μl assay buffer, 200 μl homogenate, 10 or 5 μl sample in DMSO, 100 μl radioactive ligand. The samples were incubated 1 hr at room temperature and then filtered on a 48 well Brandel cell harvester through GF/B filters which had been presoaked for two hours in 50 mM Tris buffer, pH 7.7, containing 0.5% BSA. The filter was washed 3 times with approximately 3 ml of cold 50 mm Tris buffer, pH 7.7. The filter circles were then punched into 12×75 mm polystyrene tubes and counted in a gamma counter.

T1 sequence (P25103 whole entry): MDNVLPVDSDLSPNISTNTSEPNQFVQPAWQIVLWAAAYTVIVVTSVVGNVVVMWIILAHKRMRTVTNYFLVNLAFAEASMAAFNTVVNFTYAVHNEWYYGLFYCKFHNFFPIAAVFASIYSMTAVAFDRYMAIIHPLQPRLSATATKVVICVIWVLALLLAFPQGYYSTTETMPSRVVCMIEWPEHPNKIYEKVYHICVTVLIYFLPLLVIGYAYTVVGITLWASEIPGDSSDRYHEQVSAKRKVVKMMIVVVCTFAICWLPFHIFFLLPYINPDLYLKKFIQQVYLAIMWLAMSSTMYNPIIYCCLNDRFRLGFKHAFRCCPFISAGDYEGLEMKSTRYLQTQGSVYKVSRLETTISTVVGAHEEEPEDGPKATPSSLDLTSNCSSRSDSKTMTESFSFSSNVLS

IC50 (NK-1 receptor) [nM] | IC50 (human NK-2 receptor) [nM] | SMILES | also measured
25 |  | COc1ccccc1CNCC(Cc1c[nH]c2ccccc12)NC(=O)CN1CCC(N2CCCCC2)CC1 (stereo not drawn) [Example 44] | NK-2 percent inhibition of binding (human NK-2 receptor; @ 10 μM): 54 % at
65 | 5300 | COc1ccccc1CNCC(Cc1c[nH]c2ccccc12)NC(=O)CN1CCC(N2CCCCC2)CC1 (stereo not drawn) [Example 45] | 
2.2 | 2400 | CC(=O)N(Cc1ccccc1)CC(Cc1c[nH]c2ccccc12)NC(=O)CN1CCC(N2CCCCC2)CC1 (stereo not drawn) [Example 46] | 
 | 5200 | CC(=O)N(CC(Cc1c[nH]c2ccccc12)NC(=O)CN1CCC(N2CCCCC2)CC1)c1ccccc1 (stereo not drawn) [Example 53] | NK-1 percent inhibition of binding (NK-1 receptor; @ 5 μM): 58% @
30.1 | 2100 | CC(=O)N(CCc1ccccc1)CC(Cc1c[nH]c2ccccc12)NC(=O)CN1CCC(N2CCCCC2)CC1 (stereo not drawn) [Example 54] | 
14 | 340 | COc1ccccc1CN(CC(Cc1c[nH]c2ccccc12)NC(=O)CNCCNc1ccccc1)C(C)=O (stereo not drawn) [Example 58] | 
7.3 | 3700 | COc1ccccc1CN(CC(Cc1c[nH]c2ccccc12)NC(=O)CN1CCCC1)C(C)=O (stereo not drawn) [Example 59] | 
24 | 3900 | COc1ccccc1CN(CC(Cc1c[nH]c2ccccc12)NC(=O)CN1CCCCC1)C(C)=O (stereo not drawn) [Example 60] | 
7.2 | 940 | COc1ccccc1CN(CC(Cc1c[nH]c2ccccc12)NC(=O)CN1CCCCCC1)C(C)=O (stereo not drawn) [Example 61] | 
43 | 5900 | COc1ccccc1CN(CC(Cc1c[nH]c2ccccc12)NC(=O)CN1CCOCC1)C(C)=O (stereo not drawn) [Example 62] | 
74 | 490 | COc1ccccc1CN(CC(Cc1c[nH]c2ccccc12)NC(=O)CN1CCc2ccccc21)C(C)=O (stereo not drawn) [Example 63] | 
7.2 | 600 | COc1ccccc1CN(CC(Cc1c[nH]c2ccccc12)NC(=O)CN1CCC(c2ccccc2)CC1)C(C)=O (stereo not drawn) [Example 65] | 
4.6 | 7200 | COc1ccccc1CN(CC(Cc1c[nH]c2ccccc12)NC(=O)CN1CCC(N(C)C)CC1)C(C)=O (stereo not drawn) [Example 66] | 
3.8 | 750 | COc1ccccc1CN(CC(Cc1c[nH]c2ccccc12)NC(=O)CN1CC=C(c2ccccc2)CC1)C(C)=O (stereo not drawn) [Example 67] | 
0.41 | 2400 | COc1ccccc1CN(CC(Cc1c[nH]c2ccccc12)NC(=O)CN1CCC(NC(C)=O)(c2ccccc2)CC1)C(C)=O (stereo not drawn) [Example 68] | 
5.4 | 830 | COc1ccccc1CN(CC(Cc1c[nH]c2ccccc12)NC(=O)CN1CCN(c2ccc(Cl)cc2)CC1)C(C)=O (stereo not drawn) [Example 69] | 
13 | 1000 | COc1ccccc1CN(CC(Cc1c[nH]c2ccccc12)NC(=O)CN1CCN(c2cccc(C(F)(F)F)c2)CC1)C(C)=O (stereo not drawn) [Example 70] | 
7.5 | 8900 | COc1ccccc1CN(CC(Cc1c[nH]c2ccccc12)NC(=O)CN1CCN(C)CC1)C(C)=O (stereo not drawn) [Example 71] | 
0.36 | 1000 | COc1ccccc1CN(CC(Cc1c[nH]c2ccccc12)NC(=O)CN1CCN(C2CCCCC2)CC1)C(C)=O (stereo not drawn) [Example 74] | 

IC50 (NK-1 receptor) [nM] | IC50 (human NK-2 receptor) [nM] | SMILES | also measured
69 | 1400 | COc1ccccc1CN(C[C@H](Cc1c[nH]c2ccccc12)NC(=O)CN1CCN(C2CCCCC2)CC1)C(C)=O [Example 76] | 
0.88 | 630 | COc1ccccc1CN(CC(Cc1c[nH]c2ccccc12)NC(=O)CN1CCN(Cc2ccccc2)CC1)C(C)=O (stereo not drawn) [Example 77] | 
10 | 2100 | COc1ccccc1CN(CC(Cc1c[nH]c2ccccc12)NC(=O)CN1CCN(c2ncccn2)CC1)C(C)=O (stereo not drawn) [Example 78] | 
38 | 6100 | COc1ccccc1CN(CC(Cc1c[nH]c2ccccc12)NC(=O)CN1CCN(C(C)=O)CC1)C(C)=O (stereo not drawn) [Example 79] | 
19 | 3400 | CCOC(=O)N1CCN(CC(=O)NC(Cc2c[nH]c3ccccc23)CN(Cc2ccccc2OC)C(C)=O)CC1 (stereo not drawn) [Example 80] | 
13 | 1100 | COc1ccccc1CN(CC(Cc1c[nH]c2ccccc12)NC(=O)CNCc1ccccn1)C(C)=O (stereo not drawn) [Example 81] | 
13 | 1200 | COc1ccccc1CN(CC(Cc1c[nH]c2ccccc12)NC(=O)CNCc1cccnc1)C(C)=O (stereo not drawn) [Example 82] | 
8.4 | 5200 | COc1ccccc1CN(CC(Cc1c[nH]c2ccccc12)NC(=O)CNCc1ccncc1)C(C)=O (stereo not drawn) [Example 83] | 
120 | 5600 | COc1ccccc1CN(CC(Cc1c[nH]c2ccccc12)NC(=O)c1ccccc1)C(C)=O (stereo not drawn) [Example 88] | 
85 | 760 | COc1ccccc1CN(CC(Cc1c[nH]c2ccccc12)NC(=O)CCCc1ccccc1)C(C)=O (stereo not drawn) [Example 94] | 
21 | 600 | COc1ccccc1CN(CC(Cc1c[nH]c2ccccc12)NC(=O)CCCC(=O)c1ccccc1)C(C)=O (stereo not drawn) [Example 98] | 
 |  | CC(=O)NC(Cc1c[nH]c2ccccc12)CN(C(C)=O)C(C)c1ccccc1 (stereo not drawn) [Example 99] | NK-1 percent inhibition of binding (NK-1 receptor; @ 1 μM): 15% @; NK-2 percent inhibition of binding (human NK-2 receptor; @ 10 μM): 54% @
 |  | CC(=O)NC(Cc1c[nH]c2ccccc12)CN(C(C)=O)C(C)c1ccccc1 (stereo not drawn) [Example 100] | NK-1 percent inhibition of binding (NK-1 receptor; @ 1 μM): 77% @; NK-2 percent inhibition of binding (human NK-2 receptor; @ 10 μM): 40% @
97 | 6000 | CC(NCC(Cc1c[nH]c2ccccc12)NC(=O)CN1CCC(N2CCCCC2)CC1)c1ccccc1 (stereo not drawn) [Example 101] | 
210 |  | CC(NCC(Cc1c[nH]c2ccccc12)NC(=O)CN1CCC(N2CCCCC2)CC1)c1ccccc1 (stereo not drawn) [Example 102] | NK-2 percent inhibition of binding (human NK-2 receptor; @ 10 μM): 59% @
82 | 3700 | CC(=O)N(CC(Cc1c[nH]c2ccccc12)NC(=O)CN1CCC(N2CCCCC2)CC1)C(C)c1ccccc1 (stereo not drawn) [Example 103] | 
0.62 | 1600 | CC(=O)N(CC(Cc1c[nH]c2ccccc12)NC(=O)CN1CCC(N2CCCCC2)CC1)C(C)c1ccccc1 (stereo not drawn) [Example 104] | 
630 | 15200 | COc1ccccc1CNCC(Cc1c[nH]c2ccccc12)NC(C)=O (stereo not drawn) [Example 105] | 
68 |  | COc1ccccc1CN(CC(Cc1c[nH]c2ccccc12)NC(C)=O)C(C)=O (stereo not drawn) [Example 106] | inhibition at 10 µM (human NK-2 receptor; @ 10 μM, read-out: NK-2 percent inhibition of binding): 33%

SMILES | IC50 (NK-1 receptor) [nM] | IC50 (human NK-2 receptor) [nM] | also measured
COc1ccccc1CN(C[C@@H](Cc1c[nH]c2ccccc12)NC(=O)CN1CCN(C2CCCCC2)CC1)C(C)=O [Example 75, (R)-1-[N-(2-methoxybenzyl)acetylamino]-3-(1H-indol-3-yl)-2-[N-(2-((4-cyclohexyl)piperazin-1-yl)acetyl)amino]propane] | 0.18 | 850 | 

— patent US6869957B1, “Non-peptide tachykinin receptor antagonists” (Eli Lilly and Company, priority 1993, dated 2005)
